Assays:
[1] = system: patients with advanced or recurrent endometrial cancer (EC); assay: Phase II study of E7080 in patients with advanced or recurrent endometrial cancer: tumor response (ORR) and survival (PFS, OS); format: in vivo, human
Procedure: Purpose: Angiogenesis is regulated by signaling through multiple growth factor receptors, such as VEGF receptor and FGF receptor. VEGF receptor signaling is also associated with immune cell function. E7080 is an oral angiogenesis inhibitor targeting multiple receptor tyrosine kinase; VEGFR1-3, FGFR1-4, RET, KIT, and PDGFRβ. A phase II study was performed in patients with advanced or recurrent endometrial cancer (EC) following 1 or 2 prior platinum-based treatments (Tx). The importance of angiogenesis in EC highlights the need to understand clinical mechanisms of escape from anti-angiogenic therapy. This clinical biomarker analysis was conducted to identify predictive markers of clinical benefit in EC patients upon E7080 treatment. Circulating cytokine and angiogenic factors (CAFs) can be measured in blood samples using ELISA and multiplex assay platforms. The CAFs examined in this study are listed below in Table 2. Numbers in parenthesis indicate bead region for each analyte.
(§1) The purpose of this analysis was to measure cytokine, chemokine and angiogenic factors in blood samples, such as plasma and serum, obtained from patients in clinical trials at both pre- and post-treatment with E7080 and to identify blood biomarkers which can be used to predict whether patients will respond to treatment with E7080. For these analyses, the following criteria of response were employed, namely:
(a) Tumor response: objective response rate (ORR) and % of maximum tumor shrinkage (MTS); and
(b) Survival Benefits: progression free survival (PFS)/overall survival (OS).
Materials and Methods: Patients who had metastatic/unresectable endometrial cancer after 1 or 2 prior platinum-based treatments received lenvatinib until disease progression or development of unmanageable toxicities. Patients received E7080 at a starting dose of 24 mg orally once daily in 28 day cycles. 133 patients were treated and evaluated for efficacy and molecular correlative analysis. This study was a part of the Phase 2 multicenter study of lenvatinib (ClinicalTrial.gov Identifier: NCT01111461). Baseline and post-treatment plasma samples were collected for molecular analyses. Plasma samples were collected at Cycle 1 Day 1 (pre-treatment) and Cycle 2 Day 1 (i.e., day […] post-treatment). Six mL of intravenous blood was drawn into EDTA vacutainer tubes. The tubes were gently inverted 6-8 times and then centrifuged at 3000 RPM for 10 minutes to separate the plasma from the red cell layer. Plasma was collected from the tube and dispensed into a 3.5 mL cryovial using a transfer pipette, and then stored immediately at −20° C. The plasma samples were shipped on dry ice and then ultimately transferred to −80° C. storage. Plasma samples from 122 patients were used for blood biomarker analysis. Serum from Cycle 1 day 1 (baseline), and cycle 2 day 1 were used in this analysis. The association of progression free survival (PFS) and overall survival (OS) were analyzed. Plasma samples were tested in batch format where all timepoints from the same subject were assayed on the same day. On the day of assay, samples were removed from −80° C. and allowed to thaw and reach room temperature. The plasma samples were tested in a panel of ELISA and multiplex kit as per the manufacturer's instructions. The ELISA plates were measured using a Molecular Devices UVmax kinetic microplate reader with SoftMax Pro 5.2 software. The multiplex assays were performed using the Bio-Rad Bio-Plex system with Bio-Plex Manager 4.1 software. Final protein concentrations (pg/mL) were calculated from the standard curve for each assay. Depending on the assay, plasma samples may have been diluted in assay buffer prior to testing. In these cases, protein concentrations were multiplied by the dilution factor.
A cut-off value of Ang-2 was used to test if patients with baseline Ang-2 levels have better clinical outcomes, such as ORR, PFS, and OS. […]

[2] = system: cytokine, chemokine and angiogenic factors (CAFs); assay: Plasma cytokine, chemokine and angiogenic factor (CAF) levels pre- and post-treatment with E7080 (ELISA and multiplex); format: in vivo, human; settings: cycle 2 day 1 vs cycle 1 day 1 (baseline), 122 patients
Text: as §1
Materials and Methods: Patients who had metastatic/unresectable endometrial cancer after 1 or 2 prior platinum-based treatments received lenvatinib until disease progression or development of unmanageable toxicities. Patients received E7080 at a starting dose of 24 mg orally once daily in 28 day cycles. 133 patients were treated and evaluated for efficacy and molecular correlative analysis. This study was a part of the Phase 2 multicenter study of lenvatinib (ClinicalTrial.gov Identifier: NCT01111461). Baseline and post-treatment plasma samples were collected for molecular analyses. […] The association of progression free survival (PFS) and overall survival (OS) were analyzed. […] The ELISA plates were measured using a Molecular Devices UVmax kinetic microplate reader with SoftMax Pro 5.2 software. […] Final protein concentrations (pg/mL) were calculated from the standard curve for each assay. […]

[3] = sub-group with high baseline Ang-2 (>2082 pg/ml), 98 patients
[4] = sub-group with low baseline Ang-2 (<2082 pg/ml), 24 patients
[5] = without stratification based on Ang-2 levels

COc1cc2nccc(Oc3ccc(NC(=O)NC4CC4)c(Cl)c3)c2cc1C(N)=O [E7080, 4-(3-chloro-4-(cyclopropylaminocarbonyl)aminophenoxy)-7-methoxy-6-quinolinecarboxamide]
Progression-Free Survival (months) Median ([1]; Full Set Analysis (N = 133)): 5.4 months
Objective Response (CR + PR) ([1]; Full Set Analysis (N = 133), 24 mg orally once daily): 21.8%
Objective Response (CR + PR) ([1]; High Ang-2 ≥2082.51 (N = 98)): 17.8%
Overall Survival (months) Median ([1]; High Ang-2 ≥2082.51 (N = 98)): 8.9 months
Progression-Free Survival (months) Median ([1]; High Ang-2 ≥2082.51 (N = 98)): 3.7 months
Objective Response (CR + PR) ([1]; Low Ang-2 <2082.51 (N = 24)): 60.9%
Progression-Free Survival (months) Median ([1]; Low Ang-2 <2082.51 (N = 24)): 9.5 months
Median PFS ([1]; baseline ANG2(90), 0-25% subgroup): 225 days
mOS (day) in each quartile ([1]; baseline ANG2(90), 1st (low) quartile): 541 days
mOS (day) in each quartile ([1]; baseline ANG2(90), 2nd quartile): 353 days
mOS (day) in each quartile ([1]; baseline ANG2(90), 3rd quartile): 256 days
mOS (day) in each quartile ([1]; baseline ANG2(90), 4th (high) quartile): 260 days
Median PFS ([1]; baseline ANG2(90), 25-50% subgroup): 167 days
Median PFS ([1]; baseline ANG2(90), 50-75% subgroup): 145 days
Median PFS ([1]; baseline ANG2(90), 75-100% subgroup): 77 days
Median PFS ([1]; baseline Ang-2, 0-25% subgroup): 284 days
mOS (day) in each quartile ([1]; baseline Ang-2, 1st (low) quartile): 541 days
mOS (day) in each quartile ([1]; baseline Ang-2, 2nd quartile): 289 days
mOS (day) in each quartile ([1]; baseline Ang-2, 3rd quartile): 268 days
mOS (day) in each quartile ([1]; baseline Ang-2, 4th (high) quartile): 173 days
Median PFS ([1]; baseline Ang-2, 25-50% subgroup): 167 days
Median PFS ([1]; baseline Ang-2, 50-75% subgroup): 112 days
Median PFS ([1]; baseline Ang-2, 75-100% subgroup): 77 days
Median PFS ([1]; baseline HGF(86), 0-25% subgroup): 225 days
mOS (day) in each quartile ([1]; baseline HGF(86), 1st (low) quartile): 567 days
mOS (day) in each quartile ([1]; baseline HGF(86), 2nd quartile): 452 days
mOS (day) in each quartile ([1]; baseline HGF(86), 3rd quartile): 273 days
mOS (day) in each quartile ([1]; baseline HGF(86), 4th (high) quartile): 253 days
Median PFS ([1]; baseline HGF(86), 25-50% subgroup): 205 days
Median PFS ([1]; baseline HGF(86), 50-75% subgroup): 145 days
Median PFS ([1]; baseline HGF(86), 75-100% subgroup): 109 days
Median PFS ([1]; baseline IL-8(40), 0-25% subgroup): 281 days
mOS (day) in each quartile ([1]; baseline IL-8(40), 2nd quartile): 315 days
mOS (day) in each quartile ([1]; baseline IL-8(40), 3rd quartile): 340 days
mOS (day) in each quartile ([1]; baseline IL-8(40), 4th (high) quartile): 127 days
Median PFS ([1]; baseline IL-8(40), 25-50% subgroup): 222 days
Median PFS ([1]; baseline IL-8(40), 50-75% subgroup): 145 days
Median PFS ([1]; baseline IL-8(40), 75-100% subgroup): 71 days
Median PFS ([1]; baseline IP-10(56), 0-25% subgroup): 167 days
Median PFS ([1]; baseline IP-10(56), 25-50% subgroup): 174 days
Median PFS ([1]; baseline IP-10(56), 50-75% subgroup): 220 days
Median PFS ([1]; baseline IP-10(56), 75-100% subgroup): 77 days
Median PFS ([1]; baseline MCP-1(58), 0-25% subgroup): 227 days
mOS (day) in each quartile ([1]; baseline MCP-1(58), 1st (low) quartile): 463 days
mOS (day) in each quartile ([1]; baseline MCP-1(58), 2nd quartile): 393 days
mOS (day) in each quartile ([1]; baseline MCP-1(58), 3rd quartile): 340 days
mOS (day) in each quartile ([1]; baseline MCP-1(58), 4th (high) quartile): 192 days
Median PFS ([1]; baseline MCP-1(58), 25-50% subgroup): 155 days
Median PFS ([1]; baseline MCP-1(58), 50-75% subgroup): 167 days
Median PFS ([1]; baseline MCP-1(58), 75-100% subgroup): 111 days
mOS (day) in each quartile ([1]; baseline MIP-1a(64), 2nd quartile): 293 days
mOS (day) in each quartile ([1]; baseline MIP-1a(64), 3rd quartile): 353 days
mOS (day) in each quartile ([1]; baseline MIP-1a(64), 4th (high) quartile): 264 days
Median PFS ([1]; baseline MIP-la(64), 0-25% subgroup): 210 days
Median PFS ([1]; baseline MIP-la(64), 25-50% subgroup): 155 days
Median PFS ([1]; baseline MIP-la(64), 50-75% subgroup): 117 days
Median PFS ([1]; baseline MIP-la(64), 75-100% subgroup): 166 days
Median PFS ([1]; baseline PGF(91), 0-25% subgroup): 170 days
mOS (day) in each quartile ([1]; baseline PGF(91), 2nd quartile): 350 days
mOS (day) in each quartile ([1]; baseline PGF(91), 3rd quartile): 393 days
mOS (day) in each quartile ([1]; baseline PGF(91), 4th (high) quartile): 173 days
Median PFS ([1]; baseline PGF(91), 25-50% subgroup): 174 days
Median PFS ([1]; baseline PGF(91), 50-75% subgroup): 218 days
Median PFS ([1]; baseline PGF(91), 75-100% subgroup): 77 days
Median PFS ([1]; baseline TNFa(80), 0-25% subgroup): 282 days
mOS (day) in each quartile ([1]; baseline TNFa(80), 1st (low) quartile): 654 days
mOS (day) in each quartile ([1]; baseline TNFa(80), 2nd quartile): 353 days
mOS (day) in each quartile ([1]; baseline TNFa(80), 3rd quartile): 393 days
mOS (day) in each quartile ([1]; baseline TNFa(80), 4th (high) quartile): 218 days
Median PFS ([1]; baseline TNFa(80), 25-50% subgroup): 117 days
Median PFS ([1]; baseline TNFa(80), 50-75% subgroup): 166 days
Median PFS ([1]; baseline TNFa(80), 75-100% subgroup): 112 days
Median PFS ([1]; baseline Tie-2, 0-25% subgroup): 273 days
mOS (day) in each quartile ([1]; baseline Tie-2, 1st (low) quartile): 541 days
mOS (day) in each quartile ([1]; baseline Tie-2, 2nd quartile): 282 days
mOS (day) in each quartile ([1]; baseline Tie-2, 3rd quartile): 291 days
mOS (day) in each quartile ([1]; baseline Tie-2, 4th (high) quartile): 192 days
Median PFS ([1]; baseline Tie-2, 25-50% subgroup): 165 days
Median PFS ([1]; baseline Tie-2, 50-75% subgroup): 155 days
Median PFS ([1]; baseline Tie-2, 75-100% subgroup): 112 days
Median PFS ([1]; baseline VEGFA(100), 0-25% subgroup): 158 days
mOS (day) in each quartile ([1]; baseline VEGFA(100), 1st (low) quartile): 350 days
mOS (day) in each quartile ([1]; baseline VEGFA(100), 2nd quartile): 541 days
mOS (day) in each quartile ([1]; baseline VEGFA(100), 3rd quartile): 365 days
mOS (day) in each quartile ([1]; baseline VEGFA(100), 4th (high) quartile): 260 days
Median PFS ([1]; baseline VEGFA(100), 25-50% subgroup): 205 days
Median PFS ([1]; baseline VEGFA(100), 50-75% subgroup): 165 days
Median PFS ([1]; baseline VEGFA(100), 75-100% subgroup): 83 days
Median PFS ([1]; baseline sIL-2Ra(76), 0-25% subgroup): 210 days
mOS (day) in each quartile ([1]; baseline sIL-2Ra(76), 1st (low) quartile): 562 days
mOS (day) in each quartile ([1]; baseline sIL-2Ra(76), 2nd quartile): 295 days
mOS (day) in each quartile ([1]; baseline sIL-2Ra(76), 3rd quartile): 387 days
mOS (day) in each quartile ([1]; baseline sIL-2Ra(76), 4th (high) quartile): 161 days
Median PFS ([1]; baseline sIL-2Ra(76), 25-50% subgroup): 161 days
Median PFS ([1]; baseline sIL-2Ra(76), 50-75% subgroup): 177 days
Median PFS ([1]; baseline sIL-2Ra(76), 75-100% subgroup): 72.5 days
ORR ([1]; sub-group with high baseline Ang-2 (>2082 pg/ml)): 18%
mean OS [1, 3]: 8.9 months
mean PFS [1, 3]: 3.7 months
ORR ([1]; sub-group with low baseline Ang-2 (<2082 pg/ml)): 61%
mean OS [1, 4]: 23 months
mean PFS [1, 4]: 9.5 months
ORR [1, 5]: 21.1%
mOS [1, 5]: 10.6 months
mPFS [1, 5]: 5.4 months
changes in levels of CAFs at post-treatment compared to pre-treatment [2]: Significant changes in levels of 19 CAFs among 50 CAFs tested

Reference: patent US10517861B2, “Biomarkers for predicting and assessing responsiveness of endometrial cancer subjects to lenvatinib compounds” (Eisai R&D Management Co., Ltd., priority 2013, dated 2019)
